SMILES strings stand for the structures. Like-named read-outs stand apart in the source and are kept apart here.

In general, EC50 refers to the concentration giving half of the maximal effect.

The test system of one assay is HCV genotype 6a replicon. Briefly: HCV subgenomic stable replicon cell culture assay (luciferase), genotype 6a. The note with it: Hepatitis C virus; bound stated in description, plasma not stated; read-out: EC50 value against HCV genotype 6a. Format: cell-based. Background: Replicon systems follow genome replication, usually without infectious particles.
The test system of assay [1] is HCV stable subgenomic replicons containing NS3 genes from GT 1a, 1b, 2a, 3a, 4a, or 6a. In words: HCV stable subgenomic replicon panel, summary statements over several genotypes. Format: cell-based. The note with it: Hepatitis C virus.
In assay [2] the test system is GT1a subgenomic replicon NS3 variants. Briefly: Resistant colony selection and variant susceptibility, GT1a subgenomic replicon cells. Format: cell-based, Hepatitis C virus. The following applies: A156T in GT1a. The source says:
(§1) The inhibitory effects of the compounds of the invention on HCV replication can also be determined by measuring activity of the luciferase reporter gene encoded by subgenomic replicons not containing the Neo selectable marker, that are transiently expressed in cells. The adaptive mutations encoded by the 1a-H77, 1b-N and 1b-Con-1 replicons are the same as listed above. The 1b-Con1 replicon used for these transient assays contains the NS2-NS5B coding region rather than the NS3-5B coding region. These replicons may encode target NS3 genes as described for stable subgenomic replicons or they may encode amino acid variants that confer varying degrees of susceptibility to the drug. For example, variants could include R155K, D168E or D168V in a genotype 1a NS3 gene; R155K or D168V in a genotype 1b NS3 gene; S138T, A166T or Q168R in a genotype 3a NS3 gene. For example, cells can be transfected with the replicon by electroporation and seeded into 96 well plates at a density of 5000 cells per well in 100 μl DMEM containing 5% FBS. […] Luciferin solution (100 μl, Promega) can be added to each well, and luciferase activity can be measured with a luminometer. The percent inhibition of HCV RNA replication can be calculated for each compound concentration and the EC50 value can be calculated using nonlinear regression curve fitting to the 4-parameter logistic equation and GraphPad Prism 4 software. […]

The subject of assay [3] is GT1b subgenomic replicon NS3 variants. Briefly: Resistant colony selection and variant susceptibility, GT1b subgenomic replicon cells. Format: cell-based, Hepatitis C virus. The note with it: A156V in GT1b.
Description: as §1

Assay [4] concerns replicon containing GT3a NS3 protease, variants. In words: Resistant colony selection and variant susceptibility, replicon containing GT3a NS3 protease. Format: cell-based, Hepatitis C virus. The source says: The inhibitory effects of the compounds of the invention on HCV replication can also be determined by measuring activity of the luciferase reporter gene encoded by subgenomic replicons not containing the Neo selectable marker, that are transiently expressed in cells. The adaptive mutations encoded by the 1a-H77, 1b-N and 1b-Con-1 replicons are the same as listed above. The 1b-Con1 replicon used for these transient assays contains the NS2-NS5B coding region rather than the NS3-5B coding region. These replicons may encode target NS3 genes as described for stable subgenomic replicons or they may encode amino acid variants that confer varying degrees of susceptibility to the drug. For example, variants could include R155K, D168E or D168V in a genotype 1a NS3 gene; R155K or D168V in a genotype 1b NS3 gene; S138T, A166T or Q168R in a genotype 3a NS3 gene. For example, cells can be transfected with the replicon by electroporation and seeded into 96 well plates at a density of 5000 cells per well in 100 μl DMEM containing 5% FBS. Compounds diluted in dimethyl sulfoxide (DMSO) to generate a 200× stock in a series of eight half-log dilutions can then be further diluted 100-fold in the medium containing 5% FBS and added to the cell culture plates already containing 100 μl of DMEM with 5% FBS. After an incubation period of either 3 or 4 days, 30 μl of Passive Lysis buffer (Promega) can be added to each well, with incubation for 15 minutes with rocking to lyse the cells. Luciferin solution (100 μl, Promega) can be added to each well, and luciferase activity can be measured with a luminometer. The percent inhibition of HCV RNA replication can be calculated for each compound concentration and the EC50 value can be calculated using nonlinear regression curve fitting to the 4-parameter logistic equation and GraphPad Prism 4 software.
Resistant colony selection studies in GT1a and 1b subgenomic replicon cells identified A156T in GT1a and A156V in GT1b as the most frequent variants, which conferred 1400- and 1800-fold reduced susceptibility to Compound 1, respectively. […]

For `CC(C)(C)[C@@H]1NC(=O)O[C@@H]2CCC[C@H]2OC/C=C/C(F)(F)c2nc3ccccc3nc2O[C@@H]2C[C@@H](C(=O)N[C@]3(C(=O)NS(=O)(=O)C4(C)CC4)C[C@H]3C(F)F)N(C2)C1=O` [Compound 1], the EC50 in the assay on HCV genotype 6a replicon was less than 1 nM; in assay [1] (bound stated for all six genotypes, read-out: EC50 value against HCV genotype 1a, 1b, 2a, 3a, 4a, and 6a) it was less than 3 nM; in assay [1] (genotype 1a and 1b, 0% Human Plasma, 5% FBS, read-out: mean EC50 values, range over genotype 1a and 1b replicons), 0.85 to 0.94 nM; in assay [1] (genotype 1a and 1b, 40% Human Plasma, 5% FBS, read-out: mean EC50 values, range over genotype 1a and 1b replicons), 5 to 10 nM; in assay [1] (genotype 2a, 3a, 4a, 6a, 0% Human Plasma, 5% FBS, read-out: mean EC50 values, range over genotype 2a, 3a, 4a, and 6a replicons), 0.86 to 2.8 nM. For the same molecule, the “fold reduced susceptibility conferred by variant” value in assay [2] was 1400 fold; in assay [3], 1800 fold. In addition, the figures for the “fold loss in susceptibility conferred by variant” value in assay [4] (A156G alone) and in assay [4] (Q168R co-selected with Y56H) were 1500 fold and 1100 fold, respectively. Moreover, in assay [4] (concentrations ≧100-fold over its EC50 value), the resistant colonies selected entry is on record as “very few colonies”.

The values are drawn from patent US20150119400A1, “METHODS FOR TREATING HCV” (priority 2013, published 2015).
